Results taken from ChEMBL document CHEMBL4376834, “Discovery of 4H-Chromen-4-one Derivatives as a New Class of Selective Rho Kinase (ROCK) Inhibitors, which Showed Potent Activity in ex Vivo Diabetic Retinopathy Models” (J Med Chem, 2019).

How the values were obtained:
[1] = target: Ephrin type-A receptor 4 (Homo sapiens, UniProt P54764); assay: Inhibition of recombinant human EphA4 (601 to 892 residues) using poly(Glu, Tyr) 4:1 as substrate measured after 40 mins in presence of [gamma33ATP] by radiometric scintillation counting analysis
[2] = target: Serine/threonine-protein kinase TBK1 (Homo sapiens, UniProt Q9UHD2); assay: Inhibition of recombinant full length human TBK1 using KRRRALS(p)VAS as substrate incubated for 40 mins in presence of [gamma33P]ATP by radiometric scintillation counting analysis
[3] = target: Serine/threonine-protein kinase haspin (Homo sapiens, UniProt Q8TF76); assay: Inhibition of human recombinant Haspin (471 to end residues) using RARTLSFAEPG as substrate after 40 mins by [gamma-33ATP] radiometric assay
[4] = target: Tyrosine-protein kinase BTK (Homo sapiens, UniProt Q06187); assay: Inhibition of recombinant full length human BTK using KVEKIGEGTYGVV substrate incubated for 40 mins in presence of [gamma-33ATP] by radiometric scintillation counting analysis
[5] = Protein binding in monkey plasma at 1 uM incubated incubated for 5 hrs under shaking conditions by LC-MS analysis; type: ADME, cell-free, Macaca mulatta; settings: rhesus monkey, read-out: PPB (converted)
[6] = target: CDK3/Cyclin E (Homo sapiens, UniProt Q00526); assay: Inhibition of recombinant full length human CDK3/CyclinE using Histone H1 as substrate incubated for 40 mins in presence of [gamma-33ATP] by radiometric scintillation counting analysis; type: protein-complex assay
[7] = target: Serine/threonine-protein kinase BRSK1 (Homo sapiens, UniProt Q8TDC3); assay: Inhibition of recombinant human BRSK1 ( 2 to end residues) using KKKVSRSGLYRSP substrate incubated for 40 mins in presence of [gamma-33ATP] by radiometric scintillation counting analysis
[8] = target: Serine/threonine-protein kinase PLK2 (Homo sapiens, UniProt Q9NYY3); assay: Inhibition of recombinant human SNK (65 to 409 residues) using casein as substrate incubated for 40 mins in presence of [gamma33P]ATP by radiometric scintillation counting analysis
[9] = target: Hepatocyte growth factor receptor (Homo sapiens, UniProt P08581, Y1230C); assay: Inhibition of recombinant human MET A1209G/V1290L/Y1248C triple mutant (974 to end residues) using KKKGQEEEYVFIE as substrate incubated for 40 mins in presence of [gamma-33ATP by radiometric scintillation counting analysis
[10] = target: Serine/threonine-protein kinase PAK 4 (Homo sapiens, UniProt O96013); assay: Inhibition of recombinant human PAK4 (295 to end residues) using myelin basic protein as substrate measured after 40 mins in presence of [gamma33P]ATP by radiometric scintillation counting analysis
[11] = target: Epidermal growth factor receptor (Homo sapiens, UniProt P00533, L861Q); assay: Inhibition of recombinant human EGFR L861Q mutant (696 to end residues) using poly(Glu, Tyr) 4:1 as substrate after 40 mins in presence of [gamma-33ATP] by radiometric scintillation counting analysis
[12] = target: Serine/threonine-protein kinase DCLK2 (Homo sapiens, UniProt Q8N568); assay: Inhibition of recombinant human DCAMKL2 (376 to end residues) using KKLNRTLSFAEPG as substrate after 40 mins in presence of [gamma-33ATP] by radiometric scintillation counting analysis
[13] = target: Dual specificity tyrosine-phosphorylation-regulated kinase 3 (Homo sapiens, UniProt O43781); assay: Inhibition of recombinant full length human DYRK3 using RRRFRPASPLRGPP as substrate after 40 mins in presence of [gamma-33ATP] by radiometric scintillation counting analysis
[14] = Inhibition of recombinant human PAK2 L150F/P225T/A339 deletion/V383I mutant (3 to end residues) using KEAKEKRQEQIAKR as substrate incubated for 40 mins in presence of [gamma33P]ATP by radiometric scintillation counting analysis
[15] = target: Tyrosine-protein kinase ABL1 (Homo sapiens, UniProt P00519, Q252H); assay: Inhibition of human recombinant ABL1 Q252H mutant (27 to end residues) using EAIYAAPFAKKK as substrate incubated for 40 mins in presence of [gamma-33P]ATP by radiometric scintillation counting analysis
[16] = target: Serine/threonine-protein kinase 10 (Homo sapiens, UniProt O94804); assay: Inhibition of recombinant human LOK (1 to 348 residues) using RLGRDKYKTLRQI as substrate after 40 mins in presence of [gamma-33ATP] by radiometric scintillation counting analysis
[17] = target: Protein kinase C epsilon type (Homo sapiens, UniProt Q02156); assay: Inhibition of recombinant human PKCepsilon (2 to end residues) using ERMRPRKRQGSVRR as substrate incubated for 40 mins in presence of [gamma33P]ATP by radiometric scintillation counting analysis
[18] = target: Myosin light chain kinase, smooth muscle (Homo sapiens, UniProt Q15746); assay: Inhibition of recombinant human MLCK (1425 to 1771 residues) using […] as substrate incubated for 40 mins in presence of [gamma-33ATP by radiometric scintillation counting analysis
[19] = target: Calcium/calmodulin-dependent protein kinase type 1 (Homo sapiens, UniProt Q14012); assay: Inhibition of recombinant human CaMK1alpha (2 to end residues) using calmodulin as substrate incubated for 40 mins in presence of [gamma-33ATP] by radiometric scintillation counting analysis
[20] = target: Epidermal growth factor receptor (Homo sapiens, UniProt P00533, L858R); assay: Inhibition of recombinant human EGFR L858R mutant (696 to end residues) using poly(Glu, Tyr) 4:1 as substrate after 40 mins in presence of [gamma-33ATP] by radiometric scintillation counting analysis
[21] = target: Fibroblast growth factor receptor 3 (Homo sapiens, UniProt P22607); assay: Inhibition of recombinant human FGFR3 (447 to 761 residues) using poly(Glu, Tyr) 4:1 as substrate after 40 mins in presence of [gamma-33ATP] by radiometric scintillation counting analysis
[22] = target: Casein kinase I isoform gamma-1 (Homo sapiens, UniProt Q9HCP0); assay: Inhibition of recombinant human CK1gamma1(25 to 355 residues) using KRRRALS(p)VAS as substrate incubated for 40 mins in presence of [gamma-33ATP] by radiometric scintillation counting analysis
[23] = target: Calcium/calmodulin-dependent protein kinase type 1D (Homo sapiens, UniProt Q8IU85); assay: Inhibition of recombinant full length human CaMK1delta using calmodulin as substrate incubated for 40 mins in presence of [gamma-33ATP] by radiometric scintillation counting analysis
[24] = target: Receptor-interacting serine/threonine-protein kinase 1 (Homo sapiens, UniProt Q13546); assay: Inhibition of recombinant human RIPK1 (8 to 322 residues) using myelin basic protein as substrate incubated for 40 mins in presence of [gamma33P]ATP by radiometric scintillation counting analysis
[25] = target: Dual specificity mitogen-activated protein kinase kinase 7 (Homo sapiens, UniProt O14733); assay: Inhibition of recombinant human MKK7 (2 to end residues) using inactive JNK1a1 as substrate incubated for 40 mins by radiometric scintillation counting analysis
[26] = Protein binding in rat plasma at 1 uM incubated incubated for 5 hrs under shaking conditions by LC-MS analysis; type: ADME, cell-free; settings: read-out: PPB (converted)

Chain of Serine/threonine-protein kinase 10 (O94804 whole entry, the tested form may be a part): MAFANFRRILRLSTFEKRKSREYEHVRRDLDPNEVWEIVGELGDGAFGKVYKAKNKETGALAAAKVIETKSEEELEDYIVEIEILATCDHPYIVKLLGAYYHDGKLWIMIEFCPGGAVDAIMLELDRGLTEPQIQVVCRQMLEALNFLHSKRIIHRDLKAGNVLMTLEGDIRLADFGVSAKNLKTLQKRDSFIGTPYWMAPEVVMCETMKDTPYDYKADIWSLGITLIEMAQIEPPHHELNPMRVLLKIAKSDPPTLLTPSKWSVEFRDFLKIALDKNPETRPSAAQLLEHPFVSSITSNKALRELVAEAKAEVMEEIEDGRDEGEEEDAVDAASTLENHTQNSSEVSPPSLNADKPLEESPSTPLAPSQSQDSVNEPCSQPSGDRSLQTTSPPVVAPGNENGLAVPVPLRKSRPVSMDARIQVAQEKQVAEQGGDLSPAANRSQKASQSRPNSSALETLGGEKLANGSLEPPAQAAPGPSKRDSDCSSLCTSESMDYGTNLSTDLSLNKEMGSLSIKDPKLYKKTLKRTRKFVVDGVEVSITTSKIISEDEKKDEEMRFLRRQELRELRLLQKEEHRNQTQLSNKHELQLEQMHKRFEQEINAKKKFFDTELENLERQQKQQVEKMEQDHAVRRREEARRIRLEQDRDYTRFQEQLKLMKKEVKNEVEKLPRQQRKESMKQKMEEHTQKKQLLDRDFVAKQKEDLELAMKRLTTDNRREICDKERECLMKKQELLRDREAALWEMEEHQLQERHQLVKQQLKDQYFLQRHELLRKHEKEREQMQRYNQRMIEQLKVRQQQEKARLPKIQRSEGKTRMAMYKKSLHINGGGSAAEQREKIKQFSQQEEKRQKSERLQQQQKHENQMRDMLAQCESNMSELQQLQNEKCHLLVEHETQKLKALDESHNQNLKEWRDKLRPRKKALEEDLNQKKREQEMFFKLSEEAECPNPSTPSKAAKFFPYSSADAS
Chain of Serine/threonine-protein kinase TBK1 (Q9UHD2 whole entry): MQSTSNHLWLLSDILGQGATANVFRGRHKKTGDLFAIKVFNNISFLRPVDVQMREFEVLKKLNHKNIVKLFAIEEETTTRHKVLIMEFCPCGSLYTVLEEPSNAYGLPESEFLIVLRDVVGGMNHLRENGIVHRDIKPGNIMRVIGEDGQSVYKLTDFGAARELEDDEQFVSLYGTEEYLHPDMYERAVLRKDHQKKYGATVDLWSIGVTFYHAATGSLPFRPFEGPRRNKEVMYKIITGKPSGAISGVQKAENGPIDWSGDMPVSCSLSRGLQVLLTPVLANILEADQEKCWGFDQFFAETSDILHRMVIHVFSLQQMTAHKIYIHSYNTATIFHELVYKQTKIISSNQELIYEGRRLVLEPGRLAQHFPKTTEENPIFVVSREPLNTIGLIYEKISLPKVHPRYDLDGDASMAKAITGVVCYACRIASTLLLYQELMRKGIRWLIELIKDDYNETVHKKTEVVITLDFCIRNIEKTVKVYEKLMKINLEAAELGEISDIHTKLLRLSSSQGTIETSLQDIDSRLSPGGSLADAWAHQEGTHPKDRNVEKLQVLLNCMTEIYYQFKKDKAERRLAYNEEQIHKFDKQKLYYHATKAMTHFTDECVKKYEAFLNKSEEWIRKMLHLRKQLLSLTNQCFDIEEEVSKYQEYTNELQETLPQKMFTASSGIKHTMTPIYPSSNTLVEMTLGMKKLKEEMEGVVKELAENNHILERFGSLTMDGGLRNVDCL
Chain of Serine/threonine-protein kinase PAK 4 (O96013 whole entry): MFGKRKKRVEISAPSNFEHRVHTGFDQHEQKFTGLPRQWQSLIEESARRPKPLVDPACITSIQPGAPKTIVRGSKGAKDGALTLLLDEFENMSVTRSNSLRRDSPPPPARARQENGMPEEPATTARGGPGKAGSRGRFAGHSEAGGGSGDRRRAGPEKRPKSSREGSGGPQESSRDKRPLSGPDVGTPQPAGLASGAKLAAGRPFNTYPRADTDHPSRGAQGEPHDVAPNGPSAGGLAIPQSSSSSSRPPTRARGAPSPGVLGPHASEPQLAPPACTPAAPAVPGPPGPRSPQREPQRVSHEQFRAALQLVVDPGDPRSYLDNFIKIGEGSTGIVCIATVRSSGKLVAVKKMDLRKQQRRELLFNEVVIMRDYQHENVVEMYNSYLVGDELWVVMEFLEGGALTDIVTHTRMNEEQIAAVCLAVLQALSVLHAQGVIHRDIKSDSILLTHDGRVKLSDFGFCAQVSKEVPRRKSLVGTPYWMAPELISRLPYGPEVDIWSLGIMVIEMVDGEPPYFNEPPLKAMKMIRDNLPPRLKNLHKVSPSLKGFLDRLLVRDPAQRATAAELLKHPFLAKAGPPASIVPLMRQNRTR
Chain of Epidermal growth factor receptor (Homo sapiens, UniProt P00533, L858R) (P00533 25-1210 L858R limits assumed): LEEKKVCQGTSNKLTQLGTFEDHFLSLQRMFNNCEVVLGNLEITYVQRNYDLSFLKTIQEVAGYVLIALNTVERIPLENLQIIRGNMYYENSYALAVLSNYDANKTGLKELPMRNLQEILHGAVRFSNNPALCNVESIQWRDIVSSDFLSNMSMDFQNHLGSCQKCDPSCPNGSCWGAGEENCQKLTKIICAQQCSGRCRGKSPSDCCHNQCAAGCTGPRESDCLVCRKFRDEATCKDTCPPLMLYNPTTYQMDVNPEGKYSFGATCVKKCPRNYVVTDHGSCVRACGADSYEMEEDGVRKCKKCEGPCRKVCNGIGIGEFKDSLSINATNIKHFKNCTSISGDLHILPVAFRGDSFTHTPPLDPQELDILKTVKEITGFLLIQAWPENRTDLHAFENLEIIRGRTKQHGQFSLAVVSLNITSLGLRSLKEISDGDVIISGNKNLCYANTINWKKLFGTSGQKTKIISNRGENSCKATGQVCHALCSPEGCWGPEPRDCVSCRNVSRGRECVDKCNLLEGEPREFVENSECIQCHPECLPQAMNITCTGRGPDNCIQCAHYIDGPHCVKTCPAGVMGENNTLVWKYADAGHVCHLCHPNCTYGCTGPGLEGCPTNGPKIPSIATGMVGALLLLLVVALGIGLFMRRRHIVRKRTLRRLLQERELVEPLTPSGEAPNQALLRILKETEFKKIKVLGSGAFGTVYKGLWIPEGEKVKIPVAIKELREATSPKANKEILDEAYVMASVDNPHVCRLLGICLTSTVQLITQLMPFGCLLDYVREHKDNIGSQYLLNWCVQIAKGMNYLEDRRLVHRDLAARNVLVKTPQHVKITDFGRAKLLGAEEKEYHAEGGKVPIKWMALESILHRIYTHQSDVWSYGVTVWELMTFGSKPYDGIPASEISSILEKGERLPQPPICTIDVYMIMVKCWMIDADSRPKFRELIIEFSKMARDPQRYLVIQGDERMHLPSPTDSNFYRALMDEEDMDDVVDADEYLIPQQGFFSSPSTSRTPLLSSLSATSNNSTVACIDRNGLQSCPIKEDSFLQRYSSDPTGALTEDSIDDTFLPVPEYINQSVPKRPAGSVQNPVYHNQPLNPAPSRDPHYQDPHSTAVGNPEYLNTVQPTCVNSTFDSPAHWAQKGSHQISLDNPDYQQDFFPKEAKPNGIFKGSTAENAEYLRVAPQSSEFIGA
Chain of Hepatocyte growth factor receptor (P08581 25-1390 Y1230C limits assumed): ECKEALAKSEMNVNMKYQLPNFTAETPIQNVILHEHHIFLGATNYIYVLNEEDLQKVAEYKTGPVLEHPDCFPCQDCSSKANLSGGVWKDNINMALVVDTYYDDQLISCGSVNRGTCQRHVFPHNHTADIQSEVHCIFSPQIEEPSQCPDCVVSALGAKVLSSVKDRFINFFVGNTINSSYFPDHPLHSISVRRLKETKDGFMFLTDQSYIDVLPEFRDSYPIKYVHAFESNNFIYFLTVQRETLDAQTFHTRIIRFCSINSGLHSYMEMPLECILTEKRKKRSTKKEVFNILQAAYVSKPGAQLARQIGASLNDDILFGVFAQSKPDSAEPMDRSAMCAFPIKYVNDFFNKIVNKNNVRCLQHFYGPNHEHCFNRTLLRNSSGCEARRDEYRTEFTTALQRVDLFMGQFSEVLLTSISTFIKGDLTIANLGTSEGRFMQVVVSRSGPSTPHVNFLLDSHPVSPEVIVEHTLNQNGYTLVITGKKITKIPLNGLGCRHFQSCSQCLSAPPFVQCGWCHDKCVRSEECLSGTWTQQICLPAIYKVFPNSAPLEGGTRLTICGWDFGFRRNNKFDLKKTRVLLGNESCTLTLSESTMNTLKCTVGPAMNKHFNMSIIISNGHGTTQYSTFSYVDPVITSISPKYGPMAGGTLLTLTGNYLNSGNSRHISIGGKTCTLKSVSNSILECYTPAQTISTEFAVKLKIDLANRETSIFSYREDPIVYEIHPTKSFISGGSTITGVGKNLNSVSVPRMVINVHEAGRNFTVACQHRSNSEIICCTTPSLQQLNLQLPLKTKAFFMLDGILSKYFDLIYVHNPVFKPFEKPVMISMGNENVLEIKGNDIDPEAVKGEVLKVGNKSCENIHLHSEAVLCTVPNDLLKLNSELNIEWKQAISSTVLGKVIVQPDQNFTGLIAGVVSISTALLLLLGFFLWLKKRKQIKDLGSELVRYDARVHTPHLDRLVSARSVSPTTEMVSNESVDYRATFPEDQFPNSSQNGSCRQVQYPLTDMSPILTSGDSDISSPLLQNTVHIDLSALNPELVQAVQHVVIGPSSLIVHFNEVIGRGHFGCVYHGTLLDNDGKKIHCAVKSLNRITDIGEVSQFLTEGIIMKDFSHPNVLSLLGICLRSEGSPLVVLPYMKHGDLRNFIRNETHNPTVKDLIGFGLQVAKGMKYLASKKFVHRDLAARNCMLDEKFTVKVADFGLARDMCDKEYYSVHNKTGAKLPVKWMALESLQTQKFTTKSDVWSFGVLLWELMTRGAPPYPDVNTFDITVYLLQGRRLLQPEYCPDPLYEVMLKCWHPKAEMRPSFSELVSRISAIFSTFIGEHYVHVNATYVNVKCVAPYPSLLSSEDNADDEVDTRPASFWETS

CN(C)c1ccc(C(=O)Nc2cccc(NC(=O)COc3ccc4c(=O)ccoc4c3)c2)cc1
0.004: fraction unbound at 5 h, 1 µM [26]
0.002: fraction unbound at 5 h, 1 µM [5]
> 10 µM: IC50 [1] | IC50 [2] | IC50 [3] | IC50 [4] | IC50 [6] | IC50 [7] | IC50 [8] | IC50 [9] | IC50 [10] | IC50 [11] | IC50 [12] | IC50 [13] | IC50 [14] | IC50 [15] | IC50 [16] | IC50 [17] | IC50 [18] | IC50 [19] | IC50 [20] | IC50 [21] | IC50 [22] | IC50 [23] | IC50 [24] | IC50 [25]
